{"source": "patent US20250143305A1", "about": "“PYRAZOLE COMPOUND AND PEST CONTROL AGENT CONTAINING THE SAME AS ACTIVE INGREDIENT” (MITSUI CHEMICALS CROP & LIFE SOLUTIONS, INC., priority 2022, published 2025)", "assay_type_in_all_cases": "in vivo", "key": {"Nilaparvata lugens [1]": {"test_system": "Nilaparvata lugens", "assay": "Insecticidal test against Nilaparvata lugens, spray on rice seedling", "details": "144 h, acetone solution sprayed on rice seedling, 10 young larvae, 25° C., after 6 days, read-out: mortality rate", "description": "(§1) Insecticidal Test Against Nilaparvata lugens\n(§2) 2.5 ml of an acetone solution prepared to have a predetermined concentration of the test compound was sprayed on a rice (Oryza sativa) seedling, and the rice seedling was transferred to a glass tube in which water was retained. After air drying, 10 young larvae were released into the glass tube, and the glass tube was covered with a sponge stopper. The glass tube was allowed to stand in a thermostatic chamber at 25° C., and the numbers of living insects and dead insects were examined after 6 days."}, "Nilaparvata lugens [2]": {"test_system": "Nilaparvata lugens", "assay": "Insecticidal test against Nilaparvata lugens, root part of rice seedling immersed", "details": "144 h, 2% acetone aqueous solution, 10 young larvae, 25° C., after 6 days, read-out: mortality rate", "description": "as §1\n12.5 ml of a 2% acetone aqueous solution in which the test compound was adjusted to a predetermined concentration was placed in a container, and a root part of a rice (Oryza sativa) seedling fixed with a sponge and a plastic cylinder was immersed. 10 young larvae were released into the container, and the container was covered with a plastic lid. The container was allowed to stand in a thermostatic chamber at 25° C., and the numbers of living insects and dead insects were examined after 6 days."}, "Myzus persicae [3]": {"test_system": "Myzus persicae", "assay": "Insecticidal test against Myzus persicae, spray on radish leaves", "details": "120 h, 20% acetone aqueous solution sprayed on radish leaves, 25 young larvae, 25° C., after 5 days, read-out: mortality rate", "description": "(§3) Insecticidal Test Against Myzus persicae\n2.5 ml of a 20% acetone aqueous solution prepared to have a predetermined concentration of the test compound was sprayed on the leaves of radish (Raphanus sativus) in which the roots retained water and 25 young larvae were parasitized. After air drying, it was allowed to stand in a thermostatic chamber at 25° C., and the number of living insects and the number of dead insects were examined after 5 days."}, "Myzus persicae [4]": {"test_system": "Myzus persicae", "assay": "Insecticidal test against Myzus persicae, root part of radish seedling immersed", "details": "120 h, 2% acetone aqueous solution, 25 young larvae, 25° C., after 5 days, read-out: mortality rate", "description": "as §3\n12.5 ml of a 2% acetone aqueous solution in which the test compound was adjusted to a predetermined concentration was placed in a container, and a root part of a young radish (Raphanus sativus) seedling that was fixed with a sponge and parasitized with 25 young larvae was immersed. The container was allowed to stand in a thermostatic chamber at 25° C., and the numbers of living insects and dead insects were examined after 5 days."}, "Sogatella furcifera": {"test_system": "Sogatella furcifera", "assay": "Insecticidal test against Sogatella furcifera, spray on rice seedling", "details": "144 h, acetone solution sprayed on rice seedling, 10 young larvae, 25° C., after 6 days, read-out: mortality rate", "description": "Insecticidal Test Against Sogatella furcifera\nas §2"}, "Spodoptera litura": {"test_system": "Spodoptera litura", "assay": "Insecticidal test against Spodopteta litura, cabbage leaf pieces immersed", "details": "144 h, 1,000 ppm, cabbage leaf pieces immersed 30 seconds, five 2nd instar larvae, 25° C., after 6 days, read-out: mortality rate", "description": "Insecticidal Test Against Spodopteta litura\nCabbage (Brassicae oleracea) leaf pieces were immersed in a chemical solution prepared to have a predetermined concentration of the test compound for 30 seconds, air-dried, then placed in a 7 cm polyethylene cup with a filter paper laid thereon, and five 2nd instar larvae of Spodoptera litura were released. The container was allowed to stand in a thermostatic chamber at 25° C., and the numbers of living insects and dead insects were examined after 6 days."}}}
{"compound": "CCS(=O)(=O)c1c(-c2cn3cnc(C(F)(F)F)cc3n2)nn(C)c1NC(=O)C(F)(F)F", "note": "[compound 1, N-(4-(ethylsulfonyl)-1-methyl-3-(7-(trifluoromethyl)imidazo[1,2-c]pyrimidin-2-yl)-1H-pyrazol-5-yl)-2,2,2-trifluoroacetamide]", "values": [{"measurement": "mortality at 100 ppm", "setting": "Nilaparvata lugens [1]", "value": "≥ 50", "unit": "%"}, {"measurement": "mortality at 100 ppm", "setting": "Nilaparvata lugens [2]", "value": "≥ 50", "unit": "%"}, {"measurement": "mortality at 100 ppm", "setting": "Myzus persicae [3]", "value": "≥ 50", "unit": "%"}, {"measurement": "mortality at 100 ppm", "setting": "Myzus persicae [4]", "value": "≥ 50", "unit": "%"}, {"measurement": "mortality at 100 ppm", "setting": "Sogatella furcifera", "value": "≥ 50", "unit": "%"}]}
{"compound": "CCSc1c(-c2nc3cc(C(F)(F)F)ncn3n2)nn(C)c1NC(=O)OC(C)(C)C", "note": "[compound 4, t-butyl (4-(ethylthio)-1-methyl-3-(7-(trifluoromethyl)-[1,2,4]triazolo[1,5-c]pyrimidin-2-yl)-1H-pyrazol-5-yl)carbamate]", "values": [{"measurement": "mortality at 100 ppm", "setting": "Nilaparvata lugens [1]", "value": "≥ 50", "unit": "%"}]}
{"compound": "CCSc1c(-c2nc3cc(C(F)(F)F)ncn3n2)nn(C)c1N", "note": "[compound 5, 4-(ethylthio)-1-methyl-3-(7-(trifluoromethyl)-[1,2,4]triazolo[1,5-c]pyrimidin-2-yl)-1H-pyrazol-5-amine]", "values": [{"measurement": "mortality at 100 ppm", "setting": "Myzus persicae [3]", "value": "≥ 50", "unit": "%"}]}
{"compound": "CCSc1c(-c2nc3cc(C(F)(F)F)ncn3n2)nn(C)c1NC(C)=O", "note": "[compound 10, N-(4-(ethylthio)-1-methyl-3-(7-(trifluoromethyl)-[1,2,4]triazolo[1,5-c]pyrimidin-2-yl)-1H-pyrazol-5-yl)acetamide]", "values": [{"measurement": "mortality at 100 ppm", "setting": "Nilaparvata lugens [1]", "value": "≥ 50", "unit": "%"}]}
{"compound": "CCS(=O)(=O)c1c(-c2nc3cc(C(F)(F)F)ncn3n2)nn(C)c1NC(C)=O", "note": "[compound 11, N-(4-(Ethylsulfonyl)-1-methyl-3-(7-(trifluoromethyl)-[1,2,4]triazolo[1,5-c]pyrimidin-2-yl)-1H-pyrazol-5-yl)acetamide]", "values": [{"measurement": "mortality at 100 ppm", "setting": "Nilaparvata lugens [1]", "value": "≥ 50", "unit": "%"}, {"measurement": "mortality at 100 ppm", "setting": "Nilaparvata lugens [2]", "value": "≥ 50", "unit": "%"}, {"measurement": "mortality at 100 ppm", "setting": "Myzus persicae [3]", "value": "≥ 50", "unit": "%"}, {"measurement": "mortality at 100 ppm", "setting": "Sogatella furcifera", "value": "≥ 50", "unit": "%"}]}
{"compound": "CCSc1c(-c2cn3cnc(C(F)(F)F)cc3n2)nn(C)c1NC(=O)OC(C)(C)C", "note": "[compound 26, t-butyl(4-(ethylthio)-1-methyl-3-(7-(trifluoromethyl)imidazo[1,2-c]pyrimidin-2-yl)-1H-pyrazol-5-yl)carbamate]", "values": [{"measurement": "mortality at 100 ppm", "setting": "Sogatella furcifera", "value": "≥ 50", "unit": "%"}]}
{"compound": "CCSc1c(-c2cn3cnc(C(F)(F)F)cc3n2)nn(C)c1NC(=O)C(F)(F)F", "note": "[compound 27]", "values": [{"measurement": "mortality at 100 ppm", "setting": "Nilaparvata lugens [1]", "value": "≥ 50", "unit": "%"}, {"measurement": "mortality at 100 ppm", "setting": "Myzus persicae [3]", "value": "≥ 50", "unit": "%"}, {"measurement": "mortality at 100 ppm", "setting": "Sogatella furcifera", "value": "≥ 50", "unit": "%"}]}
{"compound": "CCSc1c(-c2cn3cnc(C(F)(F)F)cc3n2)nn(C)c1N(C)C(=O)OC(C)(C)C", "note": "[compound 28, t-butyl(4-(ethylthio)-1-methyl-3-(7-(trifluoromethyl)imidazo[1,2-c]pyrimidin-2-yl)-1H-pyrazol-5-yl)(methyl)carbamate]", "values": [{"measurement": "mortality at 100 ppm", "setting": "Nilaparvata lugens [1]", "value": "≥ 50", "unit": "%"}]}
{"compound": "CCSc1c(-c2cn3cnc(C(F)(F)F)cc3n2)nn(C)c1NC", "note": "[compound 29, 4-(ethylthio)-N,1-dimethyl-3-(7-(trifluoromethyl)imidazo[1,2-c]pyrimidin-2-yl)-1H-pyrazol-5-amine]", "values": [{"measurement": "mortality at 100 ppm", "setting": "Nilaparvata lugens [1]", "value": "≥ 50", "unit": "%"}, {"measurement": "mortality at 100 ppm", "setting": "Sogatella furcifera", "value": "≥ 50", "unit": "%"}]}
{"compound": "CCSc1c(-c2cn3cnc(C(F)(F)F)cc3n2)nn(C)c1N(C)C(=O)C(F)(F)F", "note": "[compound 30, N-(4-(ethylthio)-1-methyl-3-(7-(trifluoromethyl)imidazo[1,2-c]pyrimidin-2-yl)-1H-pyrazol-5-yl)-2,2,2-trifluoro-N-methylacetamide]", "values": [{"measurement": "mortality at 100 ppm", "setting": "Nilaparvata lugens [2]", "value": "≥ 50", "unit": "%"}, {"measurement": "mortality at 100 ppm", "setting": "Sogatella furcifera", "value": "≥ 50", "unit": "%"}]}
{"compound": "CCSc1c(-c2cn3cnc(C(F)(F)F)cc3n2)nn(C)c1N", "note": "[compound 39, 4-(ethylthio)-1-methyl-3-(7-(trifluoromethyl)imidazo[1,2-c]pyrimidin-2-yl)-1H-pyrazol-5-amine]", "values": [{"measurement": "mortality at 100 ppm", "setting": "Nilaparvata lugens [1]", "value": "≥ 50", "unit": "%"}, {"measurement": "mortality at 100 ppm", "setting": "Nilaparvata lugens [2]", "value": "≥ 50", "unit": "%"}, {"measurement": "mortality at 100 ppm", "setting": "Myzus persicae [3]", "value": "≥ 50", "unit": "%"}, {"measurement": "mortality at 100 ppm", "setting": "Sogatella furcifera", "value": "≥ 50", "unit": "%"}]}
{"compound": "CCS(=O)(=O)c1c(-c2nc3cc(C(F)(F)F)ncn3c2Cl)nn(C)c1NC(=O)C(F)(F)F", "note": "[compound 53, N-(3-(3-chloro-7-(trifluoromethyl)imidazo[1,2-c]pyrimidin-2-yl)-4-(ethylsulfonyl)-1-methyl-1H-pyrazol-5-yl)-2,2,2-trifluoroacetamide]", "values": [{"measurement": "mortality at 100 ppm", "setting": "Nilaparvata lugens [1]", "value": "≥ 50", "unit": "%"}, {"measurement": "mortality at 100 ppm", "setting": "Nilaparvata lugens [2]", "value": "≥ 50", "unit": "%"}, {"measurement": "mortality at 100 ppm", "setting": "Myzus persicae [3]", "value": "≥ 50", "unit": "%"}, {"measurement": "mortality at 100 ppm", "setting": "Sogatella furcifera", "value": "≥ 50", "unit": "%"}]}
{"compound": "CCS(=O)(=O)c1c(-c2nc3cc(C(F)(F)F)ncn3c2Br)nn(C)c1NC(=O)C(F)(F)F", "note": "[compound 54, N-(3-(3-bromo-7-(trifluoromethyl)imidazo[1,2-c]pyrimidin-2-yl)-4-(ethylsulfonyl)-1-methyl-1H-pyrazol-5-yl)-2,2,2-trifluoroacetamide]", "values": [{"measurement": "mortality at 100 ppm", "setting": "Nilaparvata lugens [1]", "value": "≥ 50", "unit": "%"}, {"measurement": "mortality at 100 ppm", "setting": "Nilaparvata lugens [2]", "value": "≥ 50", "unit": "%"}, {"measurement": "mortality at 100 ppm", "setting": "Myzus persicae [3]", "value": "≥ 50", "unit": "%"}, {"measurement": "mortality at 100 ppm", "setting": "Sogatella furcifera", "value": "≥ 50", "unit": "%"}]}
{"compound": "CCSc1c(-c2cn3cnc(C(F)(F)F)cc3n2)nn(C)c1NC(=O)c1ccccn1", "note": "[compound 84, N-(4-(ethylthio)-1-methyl-3-(7-(trifluoromethyl)imidazo[1,2-c]pyrimidin-2-yl)-1H-pyrazol-5-yl)picolinamide]", "values": [{"measurement": "mortality at 100 ppm", "setting": "Nilaparvata lugens [1]", "value": "≥ 50", "unit": "%"}, {"measurement": "mortality at 1000 ppm", "setting": "Spodoptera litura", "value": "≥ 50", "unit": "%"}]}
{"compound": "CCS(=O)(=O)c1c(-c2cn3cnc(C(F)(F)F)cc3n2)nn(C)c1NC(=O)c1ccccn1", "note": "[compound 86, N-(4-(ethylsulfonyl)-1-methyl-3-(7-(trifluoromethyl)imidazo[1,2-c]pyrimidin-2-yl)-1H-pyrazol-5-yl)picolinamide]", "values": [{"measurement": "mortality at 100 ppm", "setting": "Nilaparvata lugens [1]", "value": "≥ 50", "unit": "%"}, {"measurement": "mortality at 100 ppm", "setting": "Myzus persicae [3]", "value": "≥ 50", "unit": "%"}, {"measurement": "mortality at 1000 ppm", "setting": "Spodoptera litura", "value": "≥ 50", "unit": "%"}]}
{"compound": "CCS(=O)(=O)c1c(-c2cn3cnc(C(F)(F)F)cc3n2)nn(C)c1N", "note": "[compound 100, 4-(ethylsulfonyl)-1-methyl-3-(7-(trifluoromethyl)imidazo[1,2-c]pyrimidin-2-yl)-1H-pyrazol-5-amine]", "values": [{"measurement": "mortality at 100 ppm", "setting": "Nilaparvata lugens [1]", "value": "≥ 50", "unit": "%"}, {"measurement": "mortality at 100 ppm", "setting": "Nilaparvata lugens [2]", "value": "≥ 50", "unit": "%"}, {"measurement": "mortality at 100 ppm", "setting": "Myzus persicae [3]", "value": "≥ 50", "unit": "%"}, {"measurement": "mortality at 100 ppm", "setting": "Sogatella furcifera", "value": "≥ 50", "unit": "%"}]}
